Like-named read-outs stand apart in the source and are kept apart here. Numbered stars: 1 amine (or outer) side, 2 acyl side, 3 side chain; on linkers, the order of the positions; unused ones are H or OH. Square brackets hold non-standard residues; d marks the D form. Peptide text beside a SMILES is read from it. Ile(ψThz) = CC[C@H](C)[C@H](N[*:1])c1nc(C(=O)[*:2])cs1
Assays:
[1] = CHI-IAM chromatography (immobilized artificial membrane); format: physicochemical; settings: IAM.PC.DD2 column, ammonium acetate buffer pH 7.4
From the text: With all peptides in hand we first set out to estimate their passive membrane permeability using the immobilized artificial membrane (IAM) chromatography technique. , An IAM column is packed with a reverse phase like material modified with phospholipids to mimic a cellular membrane. After analysis of a compound its retention time is compared to a set of calibration compounds to yield a CHI-IAM value. A higher value indicates a stronger membrane interaction, which can be correlated to passive membrane permeability.
CHI-IAM chromatography was carried out on an Agilent 1200 Series LC (Agilent Technologies, USA) equipped with a 4.6 mm × 100 mm to 150 mm IAM.PC.DD2 column from Regis Technologies, Inc., eluting at 1.5 mL/min, eluting over a gradient of 0% – 85% MeCN with a 50 mM ammonium acetate buffer adjusted to pH 7.4 over 4.75 min.

[2] = Variable-temperature 1H-NMR of amide protons; format: physicochemical
Experimental: The solvent exposure of peptide backbone NH groups can be studied using variable temperature ^1H-NMR experiments, where the change in chemical shift of the amide protons is observed upon increasing temperature. […] These experiments were performed for compounds SA-A1, SA-B1, SA-B2, and SA-B3 in both DMSO-d6, as a mimic of a polar environment, and CDCl3, as a mimic of the hydrophobic membrane environment (Figures S2–S9, and Tables and ). […] For SA-B3 the Ile-6 amide was also more exposed to solvent, but the change in Phe-2 shift was much smaller.
Variable-temperature nuclear magnetic resonance (VT-NMR) measurements were conducted using a Bruker Avance Neo 600 (av600) spectrometer equipped with a CP2.1 TMO 600 S3 cryoprobe. The ^1H NMR data was collected over a temperature range from 293.15 to 323.15 K, with temperature increments of 5 °C.

H-D exchange NMR = format: physicochemical; settings: 20% D2O and 80% DMSO-d6
From the text: To further confirm the solvent accessibility of the amides we performed H-D exchange experiments using SA-A1, SA-B1, and SA-B3 by adding 20% D2O to samples dissolved in DMSO-d 6 (Table and Figures S10–S12). The rate of exchange of the amide proton for deuterium is an indicator of solvent accessibility. […] In line with their observations, the Ala-1 NH exchanges rather fast in SA-A1, which is in stark contrast to Ala-1 in SA-B1 and SA-B3 where it is fully stable. […] The Ile-4 amide is always strongly shielded which is in line with it being involved in a stable hydrogen bond with the Ala-1 carbonyl group as for SA-A1. […] Unfortunately, for SA-B3 this peak overlapped with aromatic peaks prohibiting quantification.
The samples were dissolved in DMSO-d 6 and 20% D2O was added. Immediately after ^1H NMR data was collected at 0, 10, 20, 30, and 240 min. The peak area was normalized to a peak of constant height.

U2OS cells = assay: Cell painting assay (induction, cell count); format: cell-based
Experimental: Therefore, we subjected our set of compounds to the cell painting assay that is agnostic toward specific biological targets. In our cell-painting setup, the compounds were tested at different concentrations (10, 30, and 50 μM) in U2OS cells followed by treatment with dyes for mitochondria (Mito Tracker Deep Red), endoplasmic reticulum (concanavalin-Alexa488 conjugate), actin, (Phalloidin-Alexa594 conjugate), DNA (Hoechst 33342), nucleoli and cytoplasmic RNA (SYTO 14), and Golgi and plasma membranes (WGA-Alexa594 conjugate). Next, the cells were imaged in various channels at 9 sites per well and a total of 579 morphological parameters were extracted. An induction score was calculated from this analysis, which represents the number of parameters for which the change was significant in comparison to the DMSO control.
The described assay follows closely the method described by Bray et al.
Initially, 5 μL U2OS medium were added to each well of a 384-well plate (Revvity PhenoPlate 384). Subsequently, U2OS cell were seeded with a density of 1600 cells per well in 20 μL medium. The plate was incubated for 10 min at ambient temperature, followed by an additional 4 h incubation (37 °C, 5% CO2). […] Incubation with compound was performed for 20 h (37 °C, 5% CO2). Subsequently, mitochondria were stained with Mito Tracker Deep Red (Thermo Fisher Scientific, Cat. No. M22426). The Mito Tracker Deep Red stock solution (1 mM) was diluted to a final concentration of 100 nM in prewarmed medium. The medium was removed from the plate leaving 10 μL residual volume and 25 μL of the Mito Tracker solution were added to each well. The plate was incubated for 30 min in darkness (37 °C, 5% CO2). To fix the cells 7 μL of 18.5% formaldehyde in PBS were added, resulting in a final formaldehyde concentration of […]. Subsequently, the plate was incubated for another 20 min in darkness (RT) and washed three times with 70 μL of PBS. (Agilent Washer Elx405). Cells were permeabilized by addition of 25 μL 0.1% Triton X-100 to each well, followed by 15 min incubation (RT) in darkness. The cells were washed three times with PBS leaving a final volume of 10 μL. To each well 25 μL of a staining solution were added, which contains 1% BSA, 5 μL/ml Phalloidin (Alexa594 conjugate, Thermo Fisher Scientific, A12381), 25 μg/mL Concanavalin A (Alexa488 conjugate, Thermo Fisher Scientific, Cat. No. C11252), 5 μg/mL Hoechst 33342 (Sigma, Cat. No. B2261–25 mg), 1.5 μg/mL WGA-Alexa594 conjugate (Thermo Fisher Scientific, Cat. No. W11262) and 1.5 μM SYTO 14 solution (Thermo Fisher Scientific, Cat. No. S7576). The plate is incubated for 30 min (RT) in darkness and washed three times with 70 μL PBS. After the final washing step, the PBS was not aspirated. The plates were sealed and centrifuged for 1 min at 50g.
The generated images were processed with the CellProfiler package (https://cellprofiler.org/, version 3.0.0) on a computing cluster of the Max Planck Society to extract 1716 cell features per microscope site. The data was then further aggregated as medians per well (9 sites → 1 well), then over the three replicates.
From the total set of 1716 features, a subset of highly reproducible and robust features was determined using the procedure described by Woehrmann et al. in the following way: Two biological repeats of one plate containing reference compounds were analyzed. For every feature, its full profile over each whole plate was calculated.
The phenotypic profiles were compiled from the Z-scores of all individual cellular features, where the Z-score is a measure of how far away a data point is from a median value.

[3] = cited from earlier work
[4] = design: method as in Nielsen et al.; settings: D2O (10%)/DMSO-d6 (90%), value in brackets, ref Nielsen et al.; cited from earlier work
[5] = design: method as in Fairlie group; settings: ref Fairlie group; cited from earlier work
[6] = CDCl3, value in brackets, ref Bockus et al.
[7] = DMSO-d6, value in brackets, ref Nielsen et al.

## CC[C@H](C)[C@@H]1NC(=O)[C@@H]2CCCN2C(=O)[C@H](Cc2ccccc2)NC(=O)[C@H](C)NC(=O)c2csc(n2)[C@H]([C@@H](C)CC)NC(=O)[C@@H]2CCCN2C1=O [SA-A1, Sanguinamide A] (cyclo(AFPIP[Ile(ψThz)]))
[1]
  CHI-IAM: 39.71 ± 0.16
[2]; CDCl3
  ΔδNH/ΔT Ala-1: –0.1 ppb/K
  ΔδNH/ΔT Ile-4: –3.5 ppb/K
  ΔδNH/ΔT Ile-6: –3.6 ppb/K
  ΔδNH/ΔT Phe-2: –10.2 ppb/K
[2]; DMSO-d6
  ΔδNH/ΔT Ala-1: –0.4 ppb/K
  ΔδNH/ΔT Ile-4: –1.7 ppb/K
  ΔδNH/ΔT Ile-6: –3.8 ppb/K
  ΔδNH/ΔT Phe-2: –4.2 ppb/K
H-D exchange NMR
  H-D exchange rate Ala-1: 57 min
  H-D exchange rate Ile-4: > 240 min
  H-D exchange rate Ile-6: 341 min
  H-D exchange rate Phe-2: 48 min
U2OS cells
  Cell count at 10 μM: 103%
  Induction at 10 μM: 1.4%
  Cell count at 30 μM: 97%
  Induction at 30 μM: 32.6%
  Cell count at 50 μM: 88%
  Induction at 50 μM: 29.7%
[3]; [6]
  ΔδNH/ΔT Ala-1: 0.1 ppb/K
  ΔδNH/ΔT Ile-4: −3.1 ppb/K
  ΔδNH/ΔT Ile-6: −3.1 ppb/K
  ΔδNH/ΔT Phe-2: −9.1 ppb/K
[3]; [7]
  ΔδNH/ΔT Ala-1: 0.4 ppb/K
  ΔδNH/ΔT Ile-4: −1.5 ppb/K
  ΔδNH/ΔT Ile-6: −4.0 ppb/K
  ΔδNH/ΔT Phe-2: −4.2 ppb/K
[4]
  H-D exchange rate Ala-1: 188 min
  H-D exchange rate Ile-4: 6000 min
  H-D exchange rate Ile-6: 1500 min
  H-D exchange rate Phe-2: 380 min
[5]
  bioavailability (F): 7%

## CC[C@H](C)[C@@H]1NC(=O)[C@@H]2CCCN2C(=O)[C@H]([C@@H](C)CC)NC(=O)[C@@H]2CCCN2C(=O)[C@H](Cc2ccccc2)NC(=O)[C@H](C)NC(=O)[C@H](CS)NC1=O [SA-A3] (cyclo(AFPIPIC))
[1]
  CHI-IAM: 33.97 ± 0.13
U2OS cells
  Cell count at 10 μM: 102%
  Induction at 10 μM: 0.7%
  Cell count at 30 μM: 102%
  Induction at 30 μM: 1%
  Cell count at 50 μM: 98%
  Induction at 50 μM: 1%

From article PMC12670408, “Backbone Alterations in Cyclic Peptides Influence Both Membrane Permeability and Biological Activity” (Journal of Medicinal Chemistry, 2025)
